Assay: Apremilast Data Pool: weight change
Assay type: in vivo, human
Excerpt: Similar results of weight loss were reported for the Apremilast Data Pool. A weight decrease was reported during the Placebo-controlled Period (24 weeks) in 3 (0.2%) subjects who received placebo and 26 (0.9%) subjects who received apremilast, including 8 (0.8%) subject in the APR 20 BID group, and 18 (1.1%) subjects in the APR 30 BID group.
The end-of-period value is the last postbaseline value (only through the Placebo-controlled Period for placebo-treated subjects) including data up to 28 days after the last dose of investigational product but excluding the observational follow-up visit.
The end-of-period value is the last postbaseline value (while subjects were receiving apremilast), including data up to 28 days after the last dose of apremilast but excluding the observational follow-up visit.

[1] = 20 mg BID, Placebo-controlled Period, Subjects as Initially Treated at Week 0, m = 900
[2] = 30 mg BID, Apremilast-exposure Period
[3] = 30 mg BID, Apremilast-exposure Period, Apremilast Subjects as Treated, m = 2268
[4] = 30 mg BID, Placebo-controlled Period
[5] = 30 mg BID, Placebo-controlled Period, Subjects as Initially Treated at Week 0, m = 1541
[6] = APR Total, Apremilast-exposure Period, Apremilast Subjects as Treated, m = 3606
[7] = APR Total, Placebo-controlled Period, Subjects as Initially Treated at Week 0, m = 2591

In the case of `CCOc1cc([C@@H](CS(C)(=O)=O)N2C(=O)c3cccc(NC(C)=O)c3C2=O)ccc1OC` [Apremilast, (+)-2-[1-(3-ethoxy-4-methoxyphenyl)-2-methylsulfonylethyl]-4-acetylaminoisoindoline-1,3-dione], the “Weight % Change Category >0% to ≦5%, n (%)” value [1] is reported as 277 (30.8) n (%), the “Weight % Change Category >5% to ≦10%, n (%)” value [1] is reported as 262 (2.9) n (%) and the “Weight % Change Category >10% to ≦20%, n (%)” value [1] is reported as 2 (0.2) n (%). The “Weight % Change Category >20%, n (%)” value [1] was 0 n (%), the “Weight % Change Category ≧−5% to <0%, n (%)” value [1] was 393 (43.7) n (%) and the “Weight % Change Category ≧−10% to <−5%, n (%)” value [1] was 84 (9.3) n (%). The “Weight % Change Category ≧−20% to <−10%, n (%)” value [1] was 16 (1.8) n (%), the “mean weight change from baseline” value (20 mg BID, end of the Apremilast-exposure Period) was -1.09 kg and the “mean weight change from baseline” value (20 mg BID, end of the Placebo-controlled Period, Subjects as Initially Treated at Week 0) was -1.01 kg. The “observed weight loss of greater than 10%, % subjects” value [2] was 4.9%, the “weight decrease reported, subjects n (%)” value [2] was 36 (1.5%) n (%) and the “Weight % Change Category 0%, n (%)” value [3] was 162 (7.1) n (%). For the same molecule, the “Weight % Change Category <−20%, n (%)” value [3] was 11 (0.5) n (%), the “Weight % Change Category >0% to ≦5%, n (%)” value [3] was 610 (26.9) n (%) and the “Weight % Change Category >5% to ≦10%, n (%)” value [3] was 116 (5.1) n (%). The “Weight % Change Category >10% to ≦20%, n (%)” value [3] was 29 (1.3) n (%), the “Weight % Change Category >20%, n (%)” value [3] was 5 (0.2) n (%) and the “Weight % Change Category ≧−5% to <0%, n (%)” value [3] was 923 (40.7) n (%). For the same molecule, the “Weight % Change Category ≧−10% to <−5%, n (%)” value [3] was 311 (13.7) n (%), the “Weight % Change Category ≧−20% to <−10%, n (%)” value [3] was 101 (4.5) n (%) and the “observed weight loss of greater than 10%, subjects n (%)” value [4] was 23 (1.5%) n (%). For the same molecule, the “percentage of subjects with weight change of >−10% to <−5%” value [4] was 11.3%, the “weight decrease reported, subjects n (%)” value (30 mg BID, Placebo-controlled Period (24 weeks)) was 18 (1.1%) n (%) and the “Weight % Change Category 0%, n (%)” value [5] was 159 (10.3) n (%). The “Weight % Change Category <−20%, n (%)” value [5] was 1 (0.1) n (%), the “Weight % Change Category >0% to ≦5%, n (%)” value [5] was 410 (26.6) n (%) and the “Weight % Change Category >5% to ≦10%, n (%)” value [5] was 37 (2.4) n (%). For the same molecule, the “Weight % Change Category >10% to ≦20%, n (%)” value [5] was 8 (0.5) n (%), the “Weight % Change Category >20%, n (%)” value [5] was 1 (0.1) n (%) and the “Weight % Change Category ≧−5% to <0%, n (%)” value [5] was 729 (47.3) n (%). For the same molecule, the “Weight % Change Category ≧−10% to <−5%, n (%)” value [5] was 174 (11.3) n (%), the “Weight % Change Category ≧−20% to <−10%, n (%)” value [5] was 22 (1.4) n (%) and the “mean weight change from baseline” value (30 mg BID, end of the Apremilast-exposure Period) was -1.41 kg. The “mean weight change from baseline” value (30 mg BID, end of the Placebo-controlled Period, Subjects as Initially Treated at Week 0) was -1.21 kg, the “Weight % Change Category 0%, n (%)” value [6] was 325 (8.3) n (%) and the “Weight % Change Category <−20%, n (%)” value [6] was 14 (0.4) n (%). For the same molecule, the “Weight % Change Category >0% to ≦5%, n (%)” value [6] was 1109 (28.4) n (%), the “Weight % Change Category >5% to ≦10%, n (%)” value [6] was 179 (4.6) n (%) and the “Weight % Change Category >10% to ≦20%, n (%)” value [6] was 48 (1.2) n (%). The “Weight % Change Category >20%, n (%)” value [6] was 6 (0.2) n (%), the “Weight % Change Category ≧−5% to <0%, n (%)” value [6] was 1602 (41.0) n (%) and the “Weight % Change Category ≧−10% to <−5%, n (%)” value [6] was 466 (11.9) n (%). For the same molecule, the “Weight % Change Category ≧−20% to <−10%, n (%)” value [6] was 157 (4.0) n (%), the “Weight % Change Category 0%, n (%)” value [7] was 280 (10.8) n (%) and the “Weight % Change Category <−20%, n (%)” value [7] was 3 (0.1) n (%). The “Weight % Change Category >0% to ≦5%, n (%)” value [7] was 741 (28.6) n (%), the “Weight % Change Category >5% to ≦10%, n (%)” value [7] was 66 (2.5) n (%) and the “Weight % Change Category >10% to ≦20%, n (%)” value [7] was 12 (0.5) n (%). The “Weight % Change Category >20%, n (%)” value [7] was 1 (<0.1) n (%), the “Weight % Change Category ≧−5% to <0%, n (%)” value [7] was 1187 (45.8) n (%) and the “Weight % Change Category ≧−10% to <−5%, n (%)” value [7] was 263 (10.2) n (%). For the same molecule, the “Weight % Change Category ≧−20% to <−10%, n (%)” value [7] was 38 (1.5) n (%), the “body weight of the majority of subjects” value (Placebo-controlled Period and Apremilast-exposure Period) was “maintained their body weight within 0% and 5% of baseline” and the “weight decrease reported, subjects n (%)” value (all subjects who received apremilast, Placebo-controlled Period (24 weeks)) was 26 (0.9%) n (%).
